# Results reported in PubChem BioAssay AID192 (DTP/NCI, 2004).
# Inconclusive results and toxic doses are left out. Square brackets hold non-standard residues; d marks the D form. Peptide text beside a SMILES is read from it. ξ: configuration not given here. ξNle = CCCCC(N)C(=O)O
# System: BDF1 mice, B16 melanoma ip, median survival T/C
# Test: NCI In Vivo Anticancer Drug Screen. Data for tumor model B16 Melanoma (intraperitoneal) in B6D2F1 (BDF1) mice
# Details: endpoint: median survival time, higher = longer survival
# Procedure, shortened: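 Values are ratios of treated (T) to vehicle-control (C) measurements of survival or tumor size in tumor-bearing mice.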
# [1] = dose: 100.0 mg/kg/injection, schedule: Q01DX009 (ip), vehicle: Klucel (hydroxypropylcellulose) (HPC)
# [2] = dose: 200.0 mg/kg/injection, schedule: Q01DX009 (ip), vehicle: Klucel (hydroxypropylcellulose) (HPC)
# [3] = dose: 400.0 mg/kg/injection, schedule: Q01DX009 (ip), vehicle: Klucel (hydroxypropylcellulose) (HPC)
# [4] = dose: 25.0 mg/kg/injection, schedule: Q01DX009 (ip), vehicle: Klucel (hydroxypropylcellulose) (HPC)
# [5] = dose: 50.0 mg/kg/injection, schedule: Q01DX009 (ip), vehicle: Klucel (hydroxypropylcellulose) (HPC)
# [6] = dose: 0.5 mg/kg/injection, schedule: Q01DX009 (ip), vehicle: saline
# [7] = dose: 1.0 mg/kg/injection, schedule: Q01DX009 (ip), vehicle: saline
# [8] = dose: 2.0 mg/kg/injection, schedule: Q01DX009 (ip), vehicle: saline
# [9] = dose: 100.0 mg/kg/injection, schedule: Q01DX009 (ip), vehicle: saline
# [10] = dose: 400.0 mg/kg/injection, schedule: Q01DX009 (ip), vehicle: saline
# [11] = dose: 25.0 mg/kg/injection, schedule: Q01DX009 (ip), vehicle: saline
# [12] = dose: 50.0 mg/kg/injection, schedule: Q01DX009 (ip), vehicle: saline
# [13] = dose: 200.0 mg/kg/injection, schedule: Q01DX009 (ip), vehicle: saline
# [14] = dose: 100.0 mg/kg/injection, schedule: Q01DX009 (ip), vehicle: saline with Tween-80
# [15] = dose: 200.0 mg/kg/injection, schedule: Q01DX009 (ip), vehicle: saline with Tween-80
# [16] = dose: 12.5 mg/kg/injection, schedule: Q01DX009 (ip), vehicle: saline
smiles,measurement,setting,value
CCOc1ccc(NC(=O)C=O)cc1,T/C,[1],100 % of control
same,T/C,[2],90 % of control
same,T/C,[3],90 % of control
Cc1ccc(N=CN(C)Sc2ccc(C(C)(C)C)cc2)c(C)c1,T/C,[4],100 % of control
same,T/C,[5],98 % of control
same,T/C,[1],95 % of control
same,T/C,[2],94 % of control
O=C(Nc1ccc(F)cc1)c1cccc(C(=O)Nc2ccc(F)cc2)c1,T/C,[4],114 % of control
same,T/C,[5],101 % of control
same,T/C,[1],96 % of control
CCC(=O)NC1=C(N2CC2)C(=O)C(NC(=O)CC)=C(N2CC2)C1=O,T/C,[6],107 % of control
same,T/C,[7],107 % of control
same,T/C,[8],113 % of control
O=C1CCCN1,T/C,[9],100 % of control
same,T/C,[10],94 % of control
CN(C)CCN1C(=O)c2cccc3cc(N)cc(c23)C1=O,T/C,"dose: 1.0 mg/kg/injection, schedule: Q01DX009 (ip), vehicle: acid diluted with saline",99 % of control
same,T/C,"dose: 2.0 mg/kg/injection, schedule: Q01DX009 (ip), vehicle: acid diluted with saline",110 % of control
same,T/C,"dose: 4.0 mg/kg/injection, schedule: Q01DX009 (ip), vehicle: acid diluted with saline",114 % of control
same,T/C,"dose: 8.0 mg/kg/injection, schedule: Q01DX009 (ip), vehicle: acid diluted with saline",122 % of control
same,T/C,"dose: 16.0 mg/kg/injection, schedule: Q01DX009 (ip), vehicle: acid diluted with saline",155 % of control
CC(C)n1c2c([n+](C)c1/C=C/c1ccccc1)C(=O)c1ccccc1C2=O,T/C,"dose: 0.13 mg/kg/injection, schedule: Q01DX009 (ip), vehicle: saline",94 % of control
same,T/C,"dose: 0.25 mg/kg/injection, schedule: Q01DX009 (ip), vehicle: saline",96 % of control
same,T/C,[6],100 % of control
same,T/C,"dose: 1.0 mg/kg/injection, schedule: Q01DX009 (ip), vehicle: saline with Tween-80",94 % of control
same,T/C,[7],102 % of control
same,T/C,[8],90 % of control
same,T/C,"dose: 4.0 mg/kg/injection, schedule: Q01DX009 (ip), vehicle: saline",97 % of control
[Cl][Pt+2][Br].[NH-]CC[NH-],T/C,"dose: 0.47 mg/kg/injection, schedule: Q04DX003 (ip), vehicle: saline with Tween-80",110 % of control
same,T/C,[6],110 % of control
same,T/C,"dose: 0.95 mg/kg/injection, schedule: Q04DX003 (ip), vehicle: saline with Tween-80",118 % of control
same,T/C,[7],110 % of control
same,T/C,"dose: 1.9 mg/kg/injection, schedule: Q04DX003 (ip), vehicle: saline with Tween-80",105 % of control
same,T/C,[8],110 % of control
C1CCN(CCC2CCNCC2)C1,T/C,[11],109 % of control
same,T/C,[12],90 % of control
CCN(CC)C(=O)C1CN2CCc3cc(OC)c(OC)cc3C2CC1O (stereo unspecified),T/C,[11],90 % of control
same,T/C,[12],100 % of control
same,T/C,[9],100 % of control
same,T/C,[13],102 % of control
same,T/C,[10],100 % of control
C=C(Cl)CC1(C(=O)OCC)CCN(S(=O)(=O)c2ccc(C)cc2)c2ccccc2C1=O (stereo unspecified),T/C,"dose: 100.0 mg/kg/injection, schedule: Q04DX003 (ip), vehicle: Klucel (hydroxypropylcellulose) (HPC)",97 % of control
same,T/C,"dose: 200.0 mg/kg/injection, schedule: Q04DX003 (ip), vehicle: Klucel (hydroxypropylcellulose) (HPC)",107 % of control
same,T/C,"dose: 400.0 mg/kg/injection, schedule: Q04DX003 (ip), vehicle: Klucel (hydroxypropylcellulose) (HPC)",93 % of control
COc1cc2c(cc1OC)C(C=C(c1ccccc1)c1ccccc1)N(C)CC2 (stereo unspecified),T/C,"dose: 12.5 mg/kg/injection, schedule: Q04DX003 (ip), vehicle: Klucel (hydroxypropylcellulose) (HPC)",97 % of control
same,T/C,"dose: 25.0 mg/kg/injection, schedule: Q04DX003 (ip), vehicle: Klucel (hydroxypropylcellulose) (HPC)",97 % of control
same,T/C,"dose: 50.0 mg/kg/injection, schedule: Q04DX003 (ip), vehicle: Klucel (hydroxypropylcellulose) (HPC)",100 % of control
CCCCC(NC(=O)CNC(=O)CN)C(=O)O (stereo not drawn) (H-Gly-Gly-[ξNle]-OH),T/C,"dose: 50.0 mg/kg/injection, schedule: Q01DX009 (ip), vehicle: saline with Tween-80",97 % of control
same,T/C,[14],103 % of control
same,T/C,[15],92 % of control
same,T/C,"dose: 400.0 mg/kg/injection, schedule: Q01DX009 (ip), vehicle: saline with Tween-80",93 % of control
CC(=O)OC1CC(O)C23COC(O)C1(C)C2CC(O)C1(C)C3C(=O)C(O)C2(C)C(c3ccoc3)CC3OC321 (stereo unspecified),T/C,"dose: 0.13 mg/kg/injection, schedule: Q01DX009 (ip), vehicle: saline + alcohol",111 % of control
same,T/C,"dose: 0.25 mg/kg/injection, schedule: Q01DX009 (ip), vehicle: saline + alcohol",102 % of control
same,T/C,"dose: 0.5 mg/kg/injection, schedule: Q01DX009 (ip), vehicle: saline + alcohol",115 % of control
same,T/C,"dose: 1.0 mg/kg/injection, schedule: Q01DX009 (ip), vehicle: saline + alcohol",98 % of control
C/C=C1/C[C@@H](C)[C@@](C)(O)C(=O)OCC2=CCN3CC[C@@H](OC1=O)[C@@H]23,T/C,"dose: 10.0 mg/kg/injection, schedule: Q01DX009 (ip), vehicle: saline",110 % of control
same,T/C,"dose: 11.3 mg/kg/injection, schedule: Q01DX009 (ip), vehicle: saline",111 % of control
same,T/C,"dose: 20.0 mg/kg/injection, schedule: Q01DX009 (ip), vehicle: saline",113 % of control
same,T/C,"dose: 22.5 mg/kg/injection, schedule: Q01DX009 (ip), vehicle: saline",285 % of control
same,T/C,"dose: 40.0 mg/kg/injection, schedule: Q01DX009 (ip), vehicle: saline",108 % of control
same,T/C,"dose: 45.0 mg/kg/injection, schedule: Q01DX009 (ip), vehicle: saline",102 % of control
same,T/C,"dose: 80.0 mg/kg/injection, schedule: Q01DX009 (ip), vehicle: saline",108 % of control
same,T/C,"dose: 90.0 mg/kg/injection, schedule: Q01DX009 (ip), vehicle: saline",88 % of control
CN(C)N=Nc1cn[nH]c1C(N)=O,T/C,"dose: 12.5 mg/kg/injection, schedule: Q01DX009 (ip), vehicle: Klucel (hydroxypropylcellulose) (HPC)",110 % of control
same,T/C,[4],111 % of control
same,T/C,[5],100 % of control
same,T/C,[1],98 % of control
same,T/C,[2],96 % of control
O=C(NO)c1ccccc1,T/C,"dose: 12.5 mg/kg/injection, schedule: Q01DX009 (ip), vehicle: suspension in saline",94 % of control
same,T/C,"dose: 25.0 mg/kg/injection, schedule: Q01DX009 (ip), vehicle: suspension in saline",95 % of control
same,T/C,[12],97 % of control
same,T/C,"dose: 50.0 mg/kg/injection, schedule: Q01DX009 (ip), vehicle: suspension in saline",92 % of control
same,T/C,"dose: 50.0 mg/kg/injection, schedule: Q04DX003 (ip), vehicle: saline with Tween-80",107 % of control
same,T/C,[9],97 % of control
same,T/C,"dose: 100.0 mg/kg/injection, schedule: Q01DX009 (ip), vehicle: suspension in saline",92 % of control
same,T/C,"dose: 100.0 mg/kg/injection, schedule: Q04DX003 (ip), vehicle: saline with Tween-80",111 % of control
same,T/C,"dose: 178.0 mg/kg/injection, schedule: Q04DX003 (ip), vehicle: saline with Tween-80",102 % of control
same,T/C,[13],107 % of control
same,T/C,"dose: 200.0 mg/kg/injection, schedule: Q04DX003 (ip), vehicle: saline with Tween-80",108 % of control
same,T/C,"dose: 400.0 mg/kg/injection, schedule: Q04DX003 (ip), vehicle: saline with Tween-80",100 % of control
same,T/C,"dose: 600.0 mg/kg/injection, schedule: Q04DX003 (ip), vehicle: saline with Tween-80",100 % of control
O=[N+]([O-])c1ccc2c(N=Nc3c(O)ccc4ccccc34)c(O)cc(S(=O)(=O)O)c2c1,T/C,[14],106 % of control
same,T/C,[15],102 % of control
NC1=NC(=O)N2CC12 (stereo unspecified),T/C,[16],100 % of control
same,T/C,[11],103 % of control
same,T/C,[12],105 % of control
same,T/C,[9],103 % of control
[Cl][Pt+2][Cl].[NH-]CCO.[NH-]CCO,T/C,"dose: 3.13 mg/kg/injection, schedule: Q01DX009 (ip), vehicle: saline",100 % of control
same,T/C,"dose: 6.25 mg/kg/injection, schedule: Q01DX009 (ip), vehicle: saline",104 % of control
same,T/C,[16],104 % of control
CSc1nc2ccccc2s1,T/C,[5],106 % of control
same,T/C,[1],115 % of control
C/C=C/C(=O)OC(C)CCC(CC)CCCC (stereo unspecified),T/C,[1],90 % of control
same,T/C,[2],90 % of control
same,T/C,[3],90 % of control
CCCCCCCCCCCCCCCCCCNC(=S)N/N=C/c1ccc(Cl)cc1Cl,T/C,[9],87 % of control
same,T/C,[13],95 % of control
